In ChEMBL document CHEMBL3585313, “Fragment-Based Discovery of a Small Molecule Inhibitor of Bruton's Tyrosine Kinase” (J Med Chem, 2015):
pEC50, pIC50: −log10 of the molar value.

Legend:
[1] = target: Tyrosine-protein kinase Lck (Homo sapiens, UniProt P06239); test: Inhibition of Lck (unknown origin)
[2] = Volume of distribution at steady state in C57/bl6 mouse at 1 mg/kg, iv and 10 mg/kg, po; format: ADME, organism-based; conditions: in vivo, read-out: Vdss
[3] = target: Tyrosine-protein kinase Tec (Homo sapiens, UniProt P42680); test: Inhibition of human recombinant Tec
[4] = target: Cytoplasmic tyrosine-protein kinase BMX (Homo sapiens, UniProt P51813); test: Inhibition of human recombinant Bmx
[5] = target: Tyrosine-protein kinase Tec (Homo sapiens) (UniProt P42680); test: Inhibition of human recombinant Tec at 1 uM
[6] = Oral bioavailability in beagle dog at 10 mg/kg; format: ADME, organism-based, Canis lupus familiaris; conditions: in vivo
[7] = Half life in beagle dog at 1 mg/kg, iv and 10 mg/kg, po; format: ADME, organism-based, Canis lupus familiaris; conditions: in vivo
[8] = test system: Rattus norvegicus; test: Antiarthritic activity in po dosed bovine type-2 collagen-induced po dosed female Lewis rat arthritic model assessed as increase in paw volume AUC (0 to 24 hrs) administered as qd starting on day 12 continued through day 21; format: functional, organism-based
[9] = target: Activin receptor type-1 (Homo sapiens, UniProt Q04771); test: Inhibition of human recombinant ALK2 by LanthaScreen Binding assay
[10] = Oral bioavailability in C57/bl6 mouse at 10 mg/kg; format: ADME, organism-based; conditions: in vivo
[11] = target: Activated CDC42 kinase 1 (Homo sapiens, UniProt Q07912); test: Inhibition of human recombinant TNK2 by LanthaScreen Binding assay
[12] = target: T1, Tyrosine-protein kinase FRK (Homo sapiens, UniProt P42685); test: Inhibition of human recombinant Frk
[13] = Volume of distribution at steady state in beagle dog at 1 mg/kg, iv and 10 mg/kg, po; format: ADME, organism-based, Canis lupus familiaris; conditions: in vivo, read-out: Vdss
[14] = target: T2, Tyrosine-protein kinase Lyn (Homo sapiens, UniProt P07948); conditions: 1 uM
Target sequence in this assay (P07948 2-512 limits assumed): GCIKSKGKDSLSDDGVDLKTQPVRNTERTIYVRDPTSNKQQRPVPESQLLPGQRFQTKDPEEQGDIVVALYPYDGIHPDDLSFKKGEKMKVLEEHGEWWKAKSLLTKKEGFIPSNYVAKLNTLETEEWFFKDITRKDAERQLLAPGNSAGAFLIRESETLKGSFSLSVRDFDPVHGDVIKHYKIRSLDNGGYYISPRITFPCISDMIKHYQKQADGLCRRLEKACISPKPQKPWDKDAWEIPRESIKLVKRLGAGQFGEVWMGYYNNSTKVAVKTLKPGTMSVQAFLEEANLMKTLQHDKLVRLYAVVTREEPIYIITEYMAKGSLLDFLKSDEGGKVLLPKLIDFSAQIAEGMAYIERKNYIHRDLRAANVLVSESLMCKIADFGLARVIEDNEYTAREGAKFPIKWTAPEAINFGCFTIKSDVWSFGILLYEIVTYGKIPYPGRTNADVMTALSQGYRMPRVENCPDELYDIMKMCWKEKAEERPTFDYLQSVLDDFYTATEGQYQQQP
Description: Inhibition of human recombinant LynA at 1 uM

[15] = test system: Rattus norvegicus; test: Antiarthritic activity in po dosed bovine type-2 collagen-induced po dosed female Lewis rat arthritic model assessed as inhibition of paw volume administered as qd starting on day 12 continued through day 21; format: functional, organism-based
[16] = Half life in C57/bl6 mouse at 1 mg/kg, iv and 10 mg/kg, po; format: ADME, organism-based; conditions: in vivo
[17] = target: T3, Tyrosine-protein kinase Fgr (Homo sapiens, UniProt P09769); test: Inhibition of human recombinant Fgr
[18] = target: T3, Tyrosine-protein kinase Fgr; test: Inhibition of human recombinant Fgr at 1 uM
Target sequence in this assay (P09769 2-529 limits assumed): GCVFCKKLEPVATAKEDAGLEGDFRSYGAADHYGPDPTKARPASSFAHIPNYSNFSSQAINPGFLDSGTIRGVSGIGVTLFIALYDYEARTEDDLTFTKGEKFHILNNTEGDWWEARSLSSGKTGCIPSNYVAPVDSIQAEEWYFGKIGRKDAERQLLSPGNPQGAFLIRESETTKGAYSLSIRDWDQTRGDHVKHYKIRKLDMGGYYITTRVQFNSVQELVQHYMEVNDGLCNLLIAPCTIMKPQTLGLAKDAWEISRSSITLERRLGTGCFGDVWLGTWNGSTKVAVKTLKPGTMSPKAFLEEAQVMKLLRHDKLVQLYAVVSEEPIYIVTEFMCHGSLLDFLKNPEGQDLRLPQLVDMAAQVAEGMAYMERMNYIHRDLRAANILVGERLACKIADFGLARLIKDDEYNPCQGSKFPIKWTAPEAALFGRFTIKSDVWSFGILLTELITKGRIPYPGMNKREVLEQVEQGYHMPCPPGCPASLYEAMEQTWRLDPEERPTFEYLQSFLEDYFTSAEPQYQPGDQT

[19] = target: Tyrosine-protein kinase Fyn (Homo sapiens) (UniProt P06241); test: Inhibition of human recombinant Fyn at 1 uM
[20] = Clearance in Sprague-Dawley rat at 1 mg/kg, iv; format: ADME, organism-based; conditions: in vivo
[21] = target: T4, Proto-oncogene tyrosine-protein kinase Src (Homo sapiens, UniProt P12931); test: Inhibition of human recombinant Src
[22] = Volume of distribution at steady state in Sprague-Dawley rat at 1 mg/kg, iv and 4 mg/kg, po; format: ADME, organism-based; conditions: in vivo, read-out: Vdss
[23] = target: T5, Tyrosine-protein kinase HCK (Homo sapiens, UniProt P08631); test: Inhibition of human recombinant Hck at 1 uM
Target sequence in this assay (P08631 2-526 limits assumed): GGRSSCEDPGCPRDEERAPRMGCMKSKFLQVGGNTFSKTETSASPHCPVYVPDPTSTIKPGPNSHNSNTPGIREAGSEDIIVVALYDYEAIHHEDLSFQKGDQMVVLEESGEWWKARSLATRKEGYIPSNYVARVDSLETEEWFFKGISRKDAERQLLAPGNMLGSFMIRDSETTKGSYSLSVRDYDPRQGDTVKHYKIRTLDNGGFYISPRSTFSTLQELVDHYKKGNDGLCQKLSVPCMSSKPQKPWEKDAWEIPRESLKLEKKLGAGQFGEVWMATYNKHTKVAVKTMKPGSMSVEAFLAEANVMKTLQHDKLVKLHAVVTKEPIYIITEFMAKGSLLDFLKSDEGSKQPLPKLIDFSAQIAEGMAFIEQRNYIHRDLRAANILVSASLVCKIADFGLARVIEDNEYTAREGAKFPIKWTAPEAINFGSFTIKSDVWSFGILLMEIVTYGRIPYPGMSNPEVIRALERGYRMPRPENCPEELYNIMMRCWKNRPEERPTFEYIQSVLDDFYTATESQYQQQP

[24] = Half life in Sprague-Dawley rat at 1 mg/kg, iv and 4 mg/kg, po; format: ADME, organism-based; conditions: in vivo
[25] = target: Cytoplasmic tyrosine-protein kinase BMX (Homo sapiens) (UniProt P51813); test: Inhibition of human recombinant Bmx at 1 uM
[26] = target: T2, Tyrosine-protein kinase Lyn; test: Inhibition of human recombinant LynB
Target sequence in this assay (P07948 whole entry): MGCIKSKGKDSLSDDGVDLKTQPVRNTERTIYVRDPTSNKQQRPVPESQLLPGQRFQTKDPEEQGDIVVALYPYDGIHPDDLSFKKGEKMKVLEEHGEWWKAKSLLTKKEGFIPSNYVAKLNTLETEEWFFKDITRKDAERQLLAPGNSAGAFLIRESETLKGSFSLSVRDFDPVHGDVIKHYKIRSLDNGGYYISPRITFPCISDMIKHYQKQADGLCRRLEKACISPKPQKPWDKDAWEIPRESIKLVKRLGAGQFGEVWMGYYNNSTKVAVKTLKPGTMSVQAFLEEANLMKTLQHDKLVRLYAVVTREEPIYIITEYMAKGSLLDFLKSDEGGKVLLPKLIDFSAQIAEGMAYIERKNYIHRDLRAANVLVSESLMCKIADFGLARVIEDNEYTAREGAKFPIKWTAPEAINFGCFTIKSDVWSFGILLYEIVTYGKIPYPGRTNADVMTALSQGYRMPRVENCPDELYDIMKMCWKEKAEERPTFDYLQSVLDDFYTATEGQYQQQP

[27] = target: T4, Proto-oncogene tyrosine-protein kinase Src; test: Inhibition of human recombinant Src at 1 uM
[28] = target: T6, Tyrosine-protein kinase Blk (Homo sapiens, UniProt P51451); test: Inhibition of human recombinant Blk
[29] = target: Tyrosine-protein kinase Yes (Homo sapiens) (UniProt P07947); test: Inhibition of human recombinant Yes at 1 uM
[30] = Oral bioavailability in Sprague-Dawley rat at 4 mg/kg; format: ADME, organism-based; conditions: in vivo
[31] = target: T5, Tyrosine-protein kinase HCK; test: Inhibition of human recombinant Hck
[32] = target: T2, Tyrosine-protein kinase Lyn; test: Inhibition of human recombinant LynA
Target sequence in this assay (P07948 whole entry): as above

[33] = target: LIM domain kinase 1 (Homo sapiens, UniProt P53667); test: Inhibition of human recombinant LIMK1 by LanthaScreen Binding assay
[34] = Clearance in C57/bl6 mouse at 1 mg/kg, iv and 10 mg/kg, po; format: ADME, organism-based; conditions: in vivo
[35] = target: T1, Tyrosine-protein kinase FRK; test: Inhibition of human recombinant Frk at 1 uM
[36] = Clearance in beagle dog at 1 mg/kg, iv and 10 mg/kg, po; format: ADME, organism-based, Canis lupus familiaris; conditions: in vivo
[37] = target: T2, Tyrosine-protein kinase Lyn; conditions: 1 uM; remark: listed apart in the source
Target sequence in this assay (P07948 2-512 limits assumed): as the sequence (P07948 2-512 limits assumed) above
Description: Inhibition of human recombinant LynB at 1 uM

[38] = target: T6, Tyrosine-protein kinase Blk; test: Inhibition of human recombinant Blk at 1 uM
[39] = target: T7, Tyrosine-protein kinase BTK (Homo sapiens, UniProt Q06187)
Description: Inhibition of BTK in human Raji cells after 30 mins by HTRF assay

[40] = target: T7, Tyrosine-protein kinase BTK; test: Inhibition of BTK autophosphorylation in human Raji cells after 30 mins by Phos-Y223 Btk HTRF assay; format: cell-based
[41] = Hepatic extraction ratio in rat liver microsomes at 1 uM up to 30 mins by LC-MS/MS analysis; format: ADME; conditions: read-out: ERH
[42] = Hepatic extraction ratio in human liver microsomes at 1 uM up to 30 mins by LC-MS/MS analysis; format: ADME; conditions: read-out: ERH
[43] = test system: LLC-PK1; test: Efflux ratio of apparent permeability across apical to basolateral side over basolateral to apical side in pig LLC-PK1 cells expressing MDR1; format: ADME, cell-based, Sus scrofa
[44] = Hepatic extraction ratio in Sprague-Dawley rat at 1 mg/kg, iv; format: ADME, organism-based; conditions: in vivo, read-out: ERH
[45] = test system: MDR1; test: Apparent permeability across apical to basolateral side in pig LLC-PK1 cells expressing MDR1; format: ADME, cell-based, Sus scrofa

T7 sequence (Q06187 whole entry): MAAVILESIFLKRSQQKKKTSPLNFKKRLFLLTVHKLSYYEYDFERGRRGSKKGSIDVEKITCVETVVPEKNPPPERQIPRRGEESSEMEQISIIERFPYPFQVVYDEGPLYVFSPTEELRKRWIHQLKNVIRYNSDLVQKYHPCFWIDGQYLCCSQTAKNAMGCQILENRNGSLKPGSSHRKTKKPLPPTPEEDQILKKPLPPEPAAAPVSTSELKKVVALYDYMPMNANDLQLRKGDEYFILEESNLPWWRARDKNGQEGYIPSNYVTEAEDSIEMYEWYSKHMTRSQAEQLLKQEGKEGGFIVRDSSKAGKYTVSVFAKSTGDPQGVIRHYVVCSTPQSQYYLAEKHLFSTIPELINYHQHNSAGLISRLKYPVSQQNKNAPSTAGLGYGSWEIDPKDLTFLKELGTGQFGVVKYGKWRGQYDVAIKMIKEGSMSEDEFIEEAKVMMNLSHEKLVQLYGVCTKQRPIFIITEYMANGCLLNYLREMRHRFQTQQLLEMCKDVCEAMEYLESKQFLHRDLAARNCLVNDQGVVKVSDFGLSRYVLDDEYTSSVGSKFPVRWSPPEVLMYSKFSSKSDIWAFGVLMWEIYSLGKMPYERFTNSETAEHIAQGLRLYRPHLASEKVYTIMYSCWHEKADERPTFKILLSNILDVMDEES
Tyrosine-protein kinase Lck, sequence (P06239 whole entry): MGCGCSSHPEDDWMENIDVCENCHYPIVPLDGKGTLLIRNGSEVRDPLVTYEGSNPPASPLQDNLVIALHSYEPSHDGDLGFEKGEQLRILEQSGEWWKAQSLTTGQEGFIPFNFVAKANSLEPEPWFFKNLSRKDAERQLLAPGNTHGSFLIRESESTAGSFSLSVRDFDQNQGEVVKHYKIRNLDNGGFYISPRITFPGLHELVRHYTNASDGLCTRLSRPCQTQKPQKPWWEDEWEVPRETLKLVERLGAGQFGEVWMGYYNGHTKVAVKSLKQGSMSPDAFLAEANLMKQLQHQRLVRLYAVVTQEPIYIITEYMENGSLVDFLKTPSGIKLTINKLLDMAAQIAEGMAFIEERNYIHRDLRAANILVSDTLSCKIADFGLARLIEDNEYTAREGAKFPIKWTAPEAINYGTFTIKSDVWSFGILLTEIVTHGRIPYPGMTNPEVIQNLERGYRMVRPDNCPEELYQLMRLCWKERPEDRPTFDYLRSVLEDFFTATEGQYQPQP
T4 sequence (P12931 2-536 limits assumed): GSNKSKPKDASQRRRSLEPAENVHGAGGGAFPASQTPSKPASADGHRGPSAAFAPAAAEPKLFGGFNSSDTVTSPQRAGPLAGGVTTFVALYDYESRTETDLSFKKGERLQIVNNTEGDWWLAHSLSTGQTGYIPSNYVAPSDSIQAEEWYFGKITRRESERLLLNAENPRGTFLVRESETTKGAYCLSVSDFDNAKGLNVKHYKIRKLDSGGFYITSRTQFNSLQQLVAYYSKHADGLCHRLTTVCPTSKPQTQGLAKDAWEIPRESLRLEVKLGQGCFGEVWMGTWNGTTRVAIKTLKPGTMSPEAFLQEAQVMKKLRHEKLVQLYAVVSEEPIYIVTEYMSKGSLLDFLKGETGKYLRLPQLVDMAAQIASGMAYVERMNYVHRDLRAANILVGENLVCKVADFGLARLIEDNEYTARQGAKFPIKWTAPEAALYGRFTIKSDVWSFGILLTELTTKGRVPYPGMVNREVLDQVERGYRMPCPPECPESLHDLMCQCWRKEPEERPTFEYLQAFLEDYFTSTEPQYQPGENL
T1 sequence (P42685 whole entry): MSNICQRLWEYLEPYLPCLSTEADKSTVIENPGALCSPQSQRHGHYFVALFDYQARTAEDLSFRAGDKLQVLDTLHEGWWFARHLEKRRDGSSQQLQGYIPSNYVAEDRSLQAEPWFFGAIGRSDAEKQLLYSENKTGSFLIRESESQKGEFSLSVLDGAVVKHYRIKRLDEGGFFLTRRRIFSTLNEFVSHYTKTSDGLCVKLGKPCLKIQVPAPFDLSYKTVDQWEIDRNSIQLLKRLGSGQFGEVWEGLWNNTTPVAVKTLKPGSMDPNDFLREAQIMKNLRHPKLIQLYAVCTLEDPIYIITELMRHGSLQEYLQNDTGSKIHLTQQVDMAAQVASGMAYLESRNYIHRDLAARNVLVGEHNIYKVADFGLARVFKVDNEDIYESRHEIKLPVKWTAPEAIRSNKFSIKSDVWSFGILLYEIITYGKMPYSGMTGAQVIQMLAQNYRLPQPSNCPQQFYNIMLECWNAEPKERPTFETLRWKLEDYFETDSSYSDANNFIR
Tyrosine-protein kinase Fyn (Homo sapiens), sequence (P06241 2-537 limits assumed): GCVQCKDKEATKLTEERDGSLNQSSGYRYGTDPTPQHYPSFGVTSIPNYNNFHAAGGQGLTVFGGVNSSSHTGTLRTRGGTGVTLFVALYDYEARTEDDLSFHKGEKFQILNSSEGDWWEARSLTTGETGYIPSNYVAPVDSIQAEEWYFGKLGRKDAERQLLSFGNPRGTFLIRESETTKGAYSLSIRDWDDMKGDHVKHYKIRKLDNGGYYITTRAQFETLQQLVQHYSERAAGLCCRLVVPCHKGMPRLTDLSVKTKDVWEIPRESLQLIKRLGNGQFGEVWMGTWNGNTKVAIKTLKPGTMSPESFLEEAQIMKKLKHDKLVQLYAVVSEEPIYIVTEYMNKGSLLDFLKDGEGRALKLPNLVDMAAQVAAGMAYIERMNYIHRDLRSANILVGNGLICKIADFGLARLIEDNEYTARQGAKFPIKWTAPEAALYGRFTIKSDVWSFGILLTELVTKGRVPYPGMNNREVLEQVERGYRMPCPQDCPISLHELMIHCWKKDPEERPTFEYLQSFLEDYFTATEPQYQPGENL

NC(=O)c1nnc2c(-c3ccc4cc[nH]c4c3)cccc2c1N
pIC50 [1]: 5.19

NC(=O)c1nnc2c(-c3ccc4cn[nH]c4c3)cccc2c1N
pIC50 [1]: 5.89

Cc1cc2cn[nH]c2cc1-c1cccc2c(N)c(C(N)=O)nnc12
Vd [2]: 0.8 L/kg
pIC50 [3]: 7.24
pIC50 [4]: 7.44
inhibition [5]: 92%
bioavailability [6]: 89%
half-life [7]: 246 min
Activity [8]: Dose-dependent effect
pIC50 [9]: 8.15
bioavailability [10]: 93%
pIC50 [11]: 7.96
pIC50 [12]: 7.39
Vd [13]: 1.1 L/kg
inhibition [14]: 82%
Activity [15]: Dose-dependent effect
half-life [16]: 96 min
pIC50 [17]: 7.39
inhibition [18]: 94%
inhibition [19]: 53%
clearance [20]: 12 mL/min/kg
pIC50 [21]: 7.17
Vd [22]: 1.5 L/kg
inhibition [23]: 82%
half-life [24]: 96 min
inhibition [25]: 91%
pIC50 [26]: 7.27
inhibition [27]: 87%
pIC50 [28]: 7.44
inhibition [29]: 73%
bioavailability [30]: 70%
pIC50 [31]: 7.00
pIC50 [32]: 7.09
pIC50 [33]: 7.92
clearance [34]: 18 mL/min/kg
inhibition [35]: 88%
clearance [36]: 8.7 mL/min/kg
inhibition [37]: 85%
inhibition [38]: 89%

NC(=O)c1nnc2ccccc2c1N
pIC50 [1]: 4.42
pIC50 [39]: 5.46

Cn1cc(-c2cccc3c(N)c(C(N)=O)nnc23)cn1
pEC50 [40]: < 4.30
hepatic extraction ratio at 0.5 h, 1 µM [41]: 0.5
hepatic extraction ratio at 0.5 h, 1 µM [42]: 0.77
pIC50 [1]: 4.89
Ratio [43]: 0.7
pIC50 [39]: 3.62
hepatic extraction ratio [44]: 0.3
clearance [20]: 22 mL/min/kg
Vd [22]: 0.7 L/kg
half-life [24]: 78 min
Papp A→B [45]: 28.8 ×10⁻⁶ cm/s
bioavailability [30]: 35%
